Data set [1] relates to Staphylococcus aureus, Escherichia coli or Streptococcus pyogenes. The data set can be described thus: systemic infection of mice. It counts as in vivo. Particulars: sc, parenteral, such as subcutaneous, administration.
The subject of data set [2] is Streptococcus pyrogenes Aronson 1129. The experiment in a line: in vitro MIC. Particulars: ARONSON1129. Type of data set: cell-based.
A short description of data set [3]: stability to storage of the solid product. It counts as physicochemical.
A short description of data set [4]: Determination of the thermal stability (50°, HPLC penem content). It counts as physicochemical. The method, then: In order to determine the thermal stability, samples of crystalline (5R,6S)-2-aminomethyl-6-[(1R)-1-hydroxyethyl)-2-penem-3-carboxylic acid and amorphous racemic (5R,6S,1'R and 5S,6R,1'S)-2-aminomethyl-6-(1'-hydroxyethyl)-2-penem-3-carboxylic acid previously known from German Offenlegungsschrift No. 2 950 898 are used.
20 mg samples are weighed in glass tubes. The glass tubes are sealed firmly with PVC stoppers and heated in a thermostatted oil bath at 50°. At regular intervals individual glass tubes are removed from the oil bath, the samples are dissolved in 100 ml of doubly distilled water and the penem content is determined by means of HPLC analysis [UV detector: Kratos, 305 nm; injection machine: Wisp; 20 μl charge; integrator: Shimazu, C-R3A; pump: Altex, 2.0 ml/minute; column: Knauer, 25 cm×4 mm, C18 /10 um; eluant: acetonitrile/water 2:98, pH5].

Data set [5] in a line: stability to the enzyme dehydropeptidase from human kidneys. Type of data set: in vitro ADME. Particulars: kidney dehydropeptidase, read-out: t1/2 (stability to dehydropeptidase) (converted). From the text:
Compounds A and B have the following stability (expressed in half-life periods t1/2) to the enzyme dehydropeptidase from human kidneys: […]

Data set [6] has as its system Escheichia coli 205 R + TEM. The experiment in a line: in vitro MIC. Type of data set: cell-based. Particulars: read-out: in vitro MIC.
The mark [7] stands for this setting: Day 0, 50°, solid in sealed glass tube.

Values after ≈ are worked out from the molar mass of the structure shown.

Take `C[C@@H](O)[C@H]1C(=O)N2C(C(=O)O)=C(CN)S[C@H]12` [Compound A, (5R,6S)-2-aminomethyl-6-[(1R)-1-hydroxyethyl]-2-penem-3-carboxylic acid]: the ED50 (as a rule, the midpoint of the dose-response relation) in data set [1] fell in the range of 0.3 to 30 mg/kg. Moreover, the MIC (in general, the least concentration at which growth counts as inhibited) came out at 0.2 µg/mL (≈ 0.819 µM) in data set [2] and 4 µg/mL (≈ 16.4 µM) in data set [6]. Moreover, the “absorption of water from the air” value in data set [3] (approximately normal ambient conditions) is recorded as “no tendency to absorb relatively large quantities of water from the air”. For the same compound, the “stability under light, heat and air” value in data set [3] (relatively long-term action of light, heat (50° C.) and air) is recorded as “very stable”. In addition, the Penem content entry was “approx. 100%” in data set [4] (setting [7]); 99% in data set [4] (Day 1.8, 50°, 2592 min); 98% in data set [4] (Day 3, 50°, 4320 min); 97% in data set [4] (Day 4.5, 50°, 6480 min); 95% in data set [4] (Day 7, 50°, 10080 min); 94% in data set [4] (Day 9, 50°, 12960 min). Besides, the Penem content was 92% in data set [4] (Day 12, 50°, 17280 min) and 91% in data set [4] (Day 14, 50°, 20160 min). The half-life in data set [5] is 6.75 h.
Consider `C[C@@H](O)[C@H]1C(=O)N2C(C(=O)O)=C(CN)S[C@H]12` (relative stereo) [Compound B, (1'R,5R,6S+1'S,5S,6R)-2-aminomethyl-6-(1'-hydroxyethyl)-2-penem-3-carboxylic acid, reference compound], for which the figures for the MIC in data set [2] and in data set [6] were 0.5 µg/mL (≈ 2.05 µM) and 8 µg/mL (≈ 32.8 µM), respectively. The Penem content result in data set [4] (setting [7]) is listed as “approx. 100%”; in data set [4] (Day 1.8, 50°, 2592 min), 84%; in data set [4] (Day 3, 50°, 4320 min), 78%; in data set [4] (Day 4.5, 50°, 6480 min), 73%; in data set [4] (Day 7, 50°, 10080 min) it was 67%; in data set [4] (Day 9, 50°, 12960 min) it was 64%. Moreover, the Penem content in data set [4] (Day 12, 50°, 17280 min) is on record as 63%; in data set [4] (Day 14, 50°, 20160 min) it was 62%.

(Values after patent US4761408A, “Crystalline aminomethyl compound” (priority 1984, dated 1988).)
